The results in this text go back to patent US8487079B2, “Use of mitochondria-targeted electron scavengers as anti-inflammatory agents” (University of Pittsburgh—Of the Commonwealth System of …, priority 2007, dated 2013).

In assay [1] the test system is HMGB1 secretion by RAW 264.7 cells. Nature of the assay: HMGB1 secretion by LPS-stimulated RAW 264.7 cells (Western blot). It counts as cell-based, murine. As to conditions: LPS 1 μg/ml, 48 or 72 h, Western blot of supernatant. As for the experimental part: Equal volumes of cell culture supernatants were mixed with Laemmli buffer (20% glycerol, 10% beta-mercaptoethanol, 5% SDS, 0.2 M Tris.HCl, pH 6.8, and 0.4% bromophenol blue). After boiling for 10 min, the samples were subjected to 10% SDS-polyacrylamide gel electrophoresis. The resolved proteins were transferred to Hybond™-P polyvinylidene difluoride membranes (GE Healthcare, Chalfont St. Giles, UK), and blocked with bovine lacto-transfer optimizer buffer (1×PBS, 5% nonfat milk, and 0.05% Tween® 20) for 1 h. The membranes were incubated overnight at 4° C. with a 1:2000 dilution of rabbit polyclonal anti-HMGB1 antibody (generously provided by Dr. Michael T. Lotze, University of Pittsburgh) in blocking buffer. After washing three times in 1×PBST (1×PBS with 0.3% Triton X-100), immunoblots were exposed at room temperature for 1 h to a 1:20,000 dilution of horseradish peroxidase-conjugated goat anti-rabbit secondary antibody (Sigma-Aldrich, St. Louis, Mo.). After washing three times with 1×PBST, the membranes were illuminated with the ECL Plus™ substrate (GE Healthcare) and the X-ray films exposed, according to the manufacturer's instructions.
RAW 264.7 cells were cultured in the absence or presence of LPS (1 μg/ml). Some cells were co-incubated with graded concentrations of XJB-5-131. […]
In general terms: A western blot detects proteins with antibodies after separation by electrophoresis.

The test system of assay [2] is LPS-induced NO production in RAW 264.7 cells. Description: Nitric oxide secretion (nitrite assay) by LPS-stimulated RAW 264.7 cells. It counts as cell-based, murine. As to conditions: for NO secretion by LPS-stimulated RAW 264.7 cells: graded concentrations, added 1 h before LPS, 24 hours. As for the experimental part: RAW 264.7 cells were obtained from the American Type Culture Collection (Manassas, Va.). Cells were maintained in DMEM supplemented with 10% FBS, 100 units/ml penicillin, and 100 μg/ml streptomycin at 37° C. in a humidified incubator (5% CO2, 95% air). For stimulation experiments, cells were transferred to 24-well polystyrene culture plates (Corning Life Sciences, Corning, N.Y.) at 0.3 or 1×10^6 cells/well (depending on the experiment) in 1 ml of medium per well. After overnight incubation, the medium was removed and replaced with DMEM containing 0.25% FBS. Cells were stimulated by adding 0.1 μg/ml to 1 μg/ml Escherichia coli 0111:B4 lipopolysaccharide (LPS) in the presence or absence of graded concentrations of XJB-5-131 or XJB-5-208.
(§1) Nitrite (NO2^−) concentrations were measured in cell supernatants and blood serum as an indicator of nitric oxide (.NO) production, where .NO readily oxidize into nitrites (NO2^−) and nitrates (NO3^−). The total concentration of .NO was determined by reducing NO3^− to NO2^− using cadmium and detecting NO2^− using the Greiss reagent and potassium nitrite as a standard.
(§2) Samples (200 μL) were incubated with 30% zinc sulfate to precipitate proteins and then centrifuged (4° C., 12,000 g, 5 min). Supernatants were added to 0.6 g activated cadmium (previously washed twice with each deionized H2O, 0.1 M HCl, and 0.1 NH4OH) and allowed to shake overnight at room temperature. The supernatants were removed. Greiss reagent (100 μL) was mixed with an equal volume of supernatant. Reaction between the Greiss reagent and NO2^−) yielded an azo dye that can be detected spectrophotometrically. Absorbance was measured at 550 nm using a Packard Fusion™ microplate reader (PerkinElmer, Wellesley, Mass.).
RAW 264.7 murine macrophage-like cells were incubated in the presence or absence of graded concentrations of XJB-5-131 or XJB-5-208. Concentrations of either XJB-5-131 or XJB-5-208 were dissolved in dimethyl sulfoxide (DMSO). During these experiments, the highest concentration of DMSO remaining in the cell culture was 0.18% (v/v). […]

The test system of assay [3] is iNOS mRNA in RAW 264.7 cells. Nature of the assay: iNOS mRNA expression in LPS-stimulated RAW 264.7 cells (real-time RT-PCR). It counts as cell-based, mouse. As to conditions: LPS 100 ng/ml, 24 hours; for LPS-induced iNOS mRNA up-regulation: RT-PCR. As for the experimental part:
RAW 264.7 cells and liver tissue specimens were lysed with TRI-Reagent® (Molecular Research Center, Cincinnati, Ohio). Bromochloropropane (0.5 mL) was added in order to extract total RNA. After vigorous agitation and centrifugation (4° C., 12,000 g, 12 min), the aqueous phase containing RNA was collected. The RNA was precipitated with isopropanol (0.5 mL). The pellet was washed with 75% ethanol (1 mL) and centrifuged (4° C., 12,000 g, 5 min) twice, and then dissolved in RNA-free water. Total RNA was quantified using UV spectrophotometry (GeneQuant™ pro, GE Healthcare). Extracted RNAs (1 μg/reaction) were converted to single-strand cDNAs in a 20 μL volume reaction, using the Reverse Transcriptase System Kit (Promega, Madison, Wis.) as directed by the manufacturer. In a Gene Amp® PCR System 9700 (Applied Biosystems, Foster City, Calif.), the mixture was heated to 70° C. for 10 min, maintained at 42° C. for 30 min, and then heated to 95° C. for 5 min to terminate the reaction. TaqMan® Gene Expression Assays (Applied Biosystems) for 18S (endogenous control) and mouse iNOS were used. Reaction mixtures for PCR were assembled as follows: 10 μL TaqMan® Universal PCR Master Mix (Applied Biosystems), 1 μL of each assay, 5 μL cDNA template, and 3 μL of water. PCR reactions were performed in a thermocycler 7300 Real Time PCR System (Applied Biosystems) under recommended conditions (50° C. for 2 min; 95° C. for 10 min; 95° C. for 15 s; 60° C. for 1 min). The two last steps were repeated for 40 cycles. […] The ΔC^T relative quantification method was used to calculate mRNA levels for iNOS in the samples, as previously described (Scharte M, Han X, Bertges D J et al. Cytokines induce HIF-1 DNA binding and the expression of HIF-1-dependent genes in cultured rat enterocytes. Am J Physiol Gastrointest Liver Physiol 2003, 284:G373-G384). […]
RAW 264.7 cells were incubated in presence or absence of graded concentrations of XJB-5-131 or XJB-5-208. […] After 24 hours, steady-state levels of iNOS mRNA were measured using real-time quantitative RT-PCR.
For orientation: Quantitative PCR measures a nucleic acid by following its amplification.

Assay [4] relates to C57B1/6J mice challenged with LPS. Description: Plasma nitrite/nitrate in LPS-challenged mice. In kind it is in vivo. Further details: unit not given here. As to conditions: 2 μmol/kg 60 min before i.p. LPS 15 mg/kg, blood 24 h after LPS, LPS alone 321.8±70.1, control 41.8±7.0, mean±SEM, p<0.05. As for the experimental part: as §1, §2
All experiments using mice followed the guidelines for the use of experimental animals of the U.S. National Institutes of Health and were approved by the Institutional Animal Care and Use Committee at the University of Pittsburgh. […]

In assay [5] the test system is iNOS mRNA in hepatic tissue of LPS-challenged mice. Description: Hepatic iNOS mRNA expression in LPS-challenged mice. It counts as in vivo. As to conditions: 2 μmol/kg 1 h before i.p. LPS 15 mg/kg, 24 h after LPS, RT-PCR. As for the experimental part: RAW 264.7 cells and liver tissue specimens were lysed with TRI-Reagent® (Molecular Research Center, Cincinnati, Ohio). Bromochloropropane (0.5 mL) was added in order to extract total RNA. After vigorous agitation and centrifugation (4° C., 12,000 g, 12 min), the aqueous phase containing RNA was collected. The RNA was precipitated with isopropanol (0.5 mL). The pellet was washed with 75% ethanol (1 mL) and centrifuged (4° C., 12,000 g, 5 min) twice, and then dissolved in RNA-free water. Total RNA was quantified using UV spectrophotometry (GeneQuant™ pro, GE Healthcare). Extracted RNAs (1 μg/reaction) were converted to single-strand cDNAs in a 20 μL volume reaction, using the Reverse Transcriptase System Kit (Promega, Madison, Wis.) as directed by the manufacturer. […] The ΔC^T relative quantification method was used to calculate mRNA levels for iNOS in the samples, as previously described (Scharte M, Han X, Bertges D J et al. Cytokines induce HIF-1 DNA binding and the expression of HIF-1-dependent genes in cultured rat enterocytes. Am J Physiol Gastrointest Liver Physiol 2003, 284:G373-G384). […]
Mice were randomly pretreated with a solution containing XJB-5-131 (2 μmol/kg) or a similar volume (2 ml/kg) of vehicle, a 67:33 (v/v) mixture of DMSO and normal saline. […] Subsequently, iNOS mRNA expression was measured, using quantitative real-time RT-PCR. […]

For orientation: IC50 means the concentration that inhibits the measured activity by half. For the molecule `CC(C)C[C@@H](/C=C/[C@H](Cc1ccccc1)C(=O)N1CCC[C@H]1C(=O)N[C@H](C(=O)N[C@@H](CCCNC(=O)OCc1ccccc1)C(=O)NC1CC(C)(C)N([O])C(C)(C)C1)C(C)C)NC(=O)OC(C)(C)C` [XJB-5-131, N-Boc-Leu-[(E)-CH═CH]-^DPhe-Pro-Val-Orn(Cbz)-N-TEMPO], in assay [1], the “LPS-induced HMGB1 secretion” value is on record as “inhibited LPS-induced HMGB1 secretion in a concentration-dependent fashion”. Also, the IC50 in assay [2] (Mus musculus, RAW264.7, 24 h, RAW 264.7 cells, LPS 100 or 1000 ng/ml, NO2- plus NO3- in supernatant, approximate, read-out: IC50 for inhibition of LPS-induced NO production) was ~3 µM. Also, the “NO secretion by LPS-stimulated RAW 264.7 cells” value in assay [2] is “significantly reduced”. Besides, in assay [3], the “Potency in inhibiting LPS-induced iNOS up-regulation, relative to XJB-5-208” value is on record as “more potent” and the “LPS-induced iNOS mRNA up-regulation” value was “inhibited LPS-induced iNOS up-regulation”. The “concentration of nitrites within blood plasma” value in assay [4] turned out to be 179.5±34.6. The “iNOS expression in liver samples” value in assay [5] was “attenuated iNOS expression in liver samples”.
As to “N-Boc-Leu-[(E)-CH═CH]-^DPhe-N-TEMPO [XJB-5-208]”, the “NO secretion by LPS-stimulated RAW 264.7 cells” value in assay [2] is “significantly reduced”. In addition, the “LPS-induced iNOS mRNA up-regulation” value in assay [3] is “inhibited LPS-induced iNOS up-regulation”.
